Assay results from US11766422B2, “Galloylated procyanidins for treating endovascular dysfunction and increasing blood flow” (UNIVERSITY OF SOUTH FLORIDA, priority 2018, dated 2023).
Read-outs that look alike come from different tables or passages of the source.

Columns and labels:
RAW264.7 mouse cells = assay: Nitric Oxide Assay (DAF-FM fluorescence, confocal microscopy); type: cell-based
Experimental: Drug Preparation. […] The current formulation, L-arginine (COMPOUND SOLUTIONS) and L-citrulline DL-malate 2:1 (COMPOUND SOLUTIONS) were each prepared at 300 mg/ml in DMEM without phenol red (CORNING) and stored at −20° C. until use. Arginine silicate and lipopolysaccharides from E. coli 0111: B4 (LPS; SIGMA ALDRICH) were dissolved in DMSO to 300 mg/ml and 50 μg/ml, respectively, and stored frozen until use. 4,5-Diaminofluorescein Diacetate (DAF-FM) was diluted from 5 mM stocks in DMSO.
Cell Culture. […] All experiments were completed with cultures under 8 passages, and cell densities were maintained between 0.2×10^6 and 0.8×10^6 cells per ml during maintenance.
Cells were triturated with complete growth medium. Density was determined under phase-contrast using 0.2% Trypan blue. Three viable cell counts were performed on the hemocytometer and averaged.
Nitric Oxide Assay. […] DAF-FM diacetate is essentially non-fluorescent until it reacts with nitric oxide to form a fluorescent benzotriazole. DAF-FM diacetate is cell-permeant and passively diffuses across cellular membranes. Once inside cells, it is deacetylated by intracellular esterases to become DAF-FM.
Here, cells (50,000) in 3 ml of complete growth medium were plated onto 35-mm glass bottom dishes (MATTEK) pre-coated with poly-D-lysine. Cells were grown for 24 h and washed twice in HBS. Three (3) ml of serum-free medium was added. Cells were then treated with 1 μM lipopolysaccharide or various concentrations of test agents and grown for an additional 30 min. DAF-FM was added to cells to a final concentration of 2 μM and incubated for an additional 30 min.
For confocal microscopy, medium was removed, and cells were washed once in HBS and replaced with 3 ml Live Cell Imaging solution (INVITROGEN). […] For cell treatments resulting in little or no fluorescence, 4′,6-diamidino-2-phenylindole (DAPI, MOLECULAR PROBES) was added at a final concentration of 300 nM to an additional sample. Images were captured and analyzed as tiff formatted files. […] For determining fluorescence, the entire image was analyzed for each image taken.

HUVEC [1] = details: cited from earlier work
[2] = tested on: heme oxygenase 1 in RAW264, 7 cells; details: galloyl-derivative compared to non-galloylated parent molecule; cited from earlier work
[3] = tested on: S-G cells (immortalized gum epithelial cells); details: cited from earlier work
pancreatic lipase = molecular target: T1, pancreatic lipase (Homo sapiens, UniProt P16233); details: Control: Untreated enzyme; cited from earlier work
T1 sequence (P16233 17-465): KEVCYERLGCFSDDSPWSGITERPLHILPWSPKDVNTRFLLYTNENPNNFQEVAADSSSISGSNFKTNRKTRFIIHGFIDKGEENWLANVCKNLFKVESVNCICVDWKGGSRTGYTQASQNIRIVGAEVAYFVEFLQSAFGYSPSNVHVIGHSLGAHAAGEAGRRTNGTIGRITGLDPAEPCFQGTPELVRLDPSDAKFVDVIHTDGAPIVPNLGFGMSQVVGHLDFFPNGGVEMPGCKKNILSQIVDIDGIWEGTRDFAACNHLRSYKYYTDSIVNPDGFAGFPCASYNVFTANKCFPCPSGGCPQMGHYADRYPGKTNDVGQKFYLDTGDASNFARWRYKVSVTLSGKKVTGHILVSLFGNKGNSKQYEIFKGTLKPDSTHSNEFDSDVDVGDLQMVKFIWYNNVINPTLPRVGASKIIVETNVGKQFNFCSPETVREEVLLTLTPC

[4] = tested on: human umbilical vein endothelial cells (HUVEC); details: galloyl-derivative compared to non-galloylated parent molecule; cited from earlier work
fatty acid synthase = fatty acid synthase (Homo sapiens, UniProt P49327); details: Control: Untreated enzyme; cited from earlier work
[5] = molecular target: type 1 ryanodine receptor (Homo sapiens, UniProt P21817); details: Control: Untreated receptor; cited from earlier work
HUVEC [6] = details: Control: Untreated cells; cited from earlier work
NA/H exchanger = details: Control: Untreated exchanger; cited from earlier work
NA+/K+ ATPase pump = details: Control: Untreated pump; cited from earlier work
HL-60 cells [7] = details: Control: Untreated cells; cited from earlier work
[8] = Control: C, EC; cited from earlier work
[9] = molecular target: T2, rat liver microsomal 5α-reductase (Rattus norvegicus, UniProt P24008); details: cited from earlier work
T2 sequence (P24008 1-259): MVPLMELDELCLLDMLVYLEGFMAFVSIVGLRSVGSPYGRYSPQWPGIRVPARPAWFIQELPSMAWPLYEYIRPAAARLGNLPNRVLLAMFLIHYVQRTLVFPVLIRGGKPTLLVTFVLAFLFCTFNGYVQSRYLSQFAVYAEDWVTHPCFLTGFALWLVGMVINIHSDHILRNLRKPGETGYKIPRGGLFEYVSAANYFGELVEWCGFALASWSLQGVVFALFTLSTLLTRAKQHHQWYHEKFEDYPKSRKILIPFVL

[10] = tested on: fatty acid synthase expression, MCF-7 cells; details: Control: Untreated cells; cited from earlier work
HL-60 cells [11] = details: Control: Untreated cells; cited from earlier work; remark: listed apart in the source
erythrocytes = details: Control: Untreated erythrocytes; cited from earlier work
[12] = tested on: MCF-7 and MDA-MB231 cells; details: Control: Untreated cells; cited from earlier work
LNCaP and DU145 cells = details: Control: Untreated cells; cited from earlier work
K562 cells = details: cited from earlier work

Chain of type 1 ryanodine receptor (P21817 whole entry, species assumed): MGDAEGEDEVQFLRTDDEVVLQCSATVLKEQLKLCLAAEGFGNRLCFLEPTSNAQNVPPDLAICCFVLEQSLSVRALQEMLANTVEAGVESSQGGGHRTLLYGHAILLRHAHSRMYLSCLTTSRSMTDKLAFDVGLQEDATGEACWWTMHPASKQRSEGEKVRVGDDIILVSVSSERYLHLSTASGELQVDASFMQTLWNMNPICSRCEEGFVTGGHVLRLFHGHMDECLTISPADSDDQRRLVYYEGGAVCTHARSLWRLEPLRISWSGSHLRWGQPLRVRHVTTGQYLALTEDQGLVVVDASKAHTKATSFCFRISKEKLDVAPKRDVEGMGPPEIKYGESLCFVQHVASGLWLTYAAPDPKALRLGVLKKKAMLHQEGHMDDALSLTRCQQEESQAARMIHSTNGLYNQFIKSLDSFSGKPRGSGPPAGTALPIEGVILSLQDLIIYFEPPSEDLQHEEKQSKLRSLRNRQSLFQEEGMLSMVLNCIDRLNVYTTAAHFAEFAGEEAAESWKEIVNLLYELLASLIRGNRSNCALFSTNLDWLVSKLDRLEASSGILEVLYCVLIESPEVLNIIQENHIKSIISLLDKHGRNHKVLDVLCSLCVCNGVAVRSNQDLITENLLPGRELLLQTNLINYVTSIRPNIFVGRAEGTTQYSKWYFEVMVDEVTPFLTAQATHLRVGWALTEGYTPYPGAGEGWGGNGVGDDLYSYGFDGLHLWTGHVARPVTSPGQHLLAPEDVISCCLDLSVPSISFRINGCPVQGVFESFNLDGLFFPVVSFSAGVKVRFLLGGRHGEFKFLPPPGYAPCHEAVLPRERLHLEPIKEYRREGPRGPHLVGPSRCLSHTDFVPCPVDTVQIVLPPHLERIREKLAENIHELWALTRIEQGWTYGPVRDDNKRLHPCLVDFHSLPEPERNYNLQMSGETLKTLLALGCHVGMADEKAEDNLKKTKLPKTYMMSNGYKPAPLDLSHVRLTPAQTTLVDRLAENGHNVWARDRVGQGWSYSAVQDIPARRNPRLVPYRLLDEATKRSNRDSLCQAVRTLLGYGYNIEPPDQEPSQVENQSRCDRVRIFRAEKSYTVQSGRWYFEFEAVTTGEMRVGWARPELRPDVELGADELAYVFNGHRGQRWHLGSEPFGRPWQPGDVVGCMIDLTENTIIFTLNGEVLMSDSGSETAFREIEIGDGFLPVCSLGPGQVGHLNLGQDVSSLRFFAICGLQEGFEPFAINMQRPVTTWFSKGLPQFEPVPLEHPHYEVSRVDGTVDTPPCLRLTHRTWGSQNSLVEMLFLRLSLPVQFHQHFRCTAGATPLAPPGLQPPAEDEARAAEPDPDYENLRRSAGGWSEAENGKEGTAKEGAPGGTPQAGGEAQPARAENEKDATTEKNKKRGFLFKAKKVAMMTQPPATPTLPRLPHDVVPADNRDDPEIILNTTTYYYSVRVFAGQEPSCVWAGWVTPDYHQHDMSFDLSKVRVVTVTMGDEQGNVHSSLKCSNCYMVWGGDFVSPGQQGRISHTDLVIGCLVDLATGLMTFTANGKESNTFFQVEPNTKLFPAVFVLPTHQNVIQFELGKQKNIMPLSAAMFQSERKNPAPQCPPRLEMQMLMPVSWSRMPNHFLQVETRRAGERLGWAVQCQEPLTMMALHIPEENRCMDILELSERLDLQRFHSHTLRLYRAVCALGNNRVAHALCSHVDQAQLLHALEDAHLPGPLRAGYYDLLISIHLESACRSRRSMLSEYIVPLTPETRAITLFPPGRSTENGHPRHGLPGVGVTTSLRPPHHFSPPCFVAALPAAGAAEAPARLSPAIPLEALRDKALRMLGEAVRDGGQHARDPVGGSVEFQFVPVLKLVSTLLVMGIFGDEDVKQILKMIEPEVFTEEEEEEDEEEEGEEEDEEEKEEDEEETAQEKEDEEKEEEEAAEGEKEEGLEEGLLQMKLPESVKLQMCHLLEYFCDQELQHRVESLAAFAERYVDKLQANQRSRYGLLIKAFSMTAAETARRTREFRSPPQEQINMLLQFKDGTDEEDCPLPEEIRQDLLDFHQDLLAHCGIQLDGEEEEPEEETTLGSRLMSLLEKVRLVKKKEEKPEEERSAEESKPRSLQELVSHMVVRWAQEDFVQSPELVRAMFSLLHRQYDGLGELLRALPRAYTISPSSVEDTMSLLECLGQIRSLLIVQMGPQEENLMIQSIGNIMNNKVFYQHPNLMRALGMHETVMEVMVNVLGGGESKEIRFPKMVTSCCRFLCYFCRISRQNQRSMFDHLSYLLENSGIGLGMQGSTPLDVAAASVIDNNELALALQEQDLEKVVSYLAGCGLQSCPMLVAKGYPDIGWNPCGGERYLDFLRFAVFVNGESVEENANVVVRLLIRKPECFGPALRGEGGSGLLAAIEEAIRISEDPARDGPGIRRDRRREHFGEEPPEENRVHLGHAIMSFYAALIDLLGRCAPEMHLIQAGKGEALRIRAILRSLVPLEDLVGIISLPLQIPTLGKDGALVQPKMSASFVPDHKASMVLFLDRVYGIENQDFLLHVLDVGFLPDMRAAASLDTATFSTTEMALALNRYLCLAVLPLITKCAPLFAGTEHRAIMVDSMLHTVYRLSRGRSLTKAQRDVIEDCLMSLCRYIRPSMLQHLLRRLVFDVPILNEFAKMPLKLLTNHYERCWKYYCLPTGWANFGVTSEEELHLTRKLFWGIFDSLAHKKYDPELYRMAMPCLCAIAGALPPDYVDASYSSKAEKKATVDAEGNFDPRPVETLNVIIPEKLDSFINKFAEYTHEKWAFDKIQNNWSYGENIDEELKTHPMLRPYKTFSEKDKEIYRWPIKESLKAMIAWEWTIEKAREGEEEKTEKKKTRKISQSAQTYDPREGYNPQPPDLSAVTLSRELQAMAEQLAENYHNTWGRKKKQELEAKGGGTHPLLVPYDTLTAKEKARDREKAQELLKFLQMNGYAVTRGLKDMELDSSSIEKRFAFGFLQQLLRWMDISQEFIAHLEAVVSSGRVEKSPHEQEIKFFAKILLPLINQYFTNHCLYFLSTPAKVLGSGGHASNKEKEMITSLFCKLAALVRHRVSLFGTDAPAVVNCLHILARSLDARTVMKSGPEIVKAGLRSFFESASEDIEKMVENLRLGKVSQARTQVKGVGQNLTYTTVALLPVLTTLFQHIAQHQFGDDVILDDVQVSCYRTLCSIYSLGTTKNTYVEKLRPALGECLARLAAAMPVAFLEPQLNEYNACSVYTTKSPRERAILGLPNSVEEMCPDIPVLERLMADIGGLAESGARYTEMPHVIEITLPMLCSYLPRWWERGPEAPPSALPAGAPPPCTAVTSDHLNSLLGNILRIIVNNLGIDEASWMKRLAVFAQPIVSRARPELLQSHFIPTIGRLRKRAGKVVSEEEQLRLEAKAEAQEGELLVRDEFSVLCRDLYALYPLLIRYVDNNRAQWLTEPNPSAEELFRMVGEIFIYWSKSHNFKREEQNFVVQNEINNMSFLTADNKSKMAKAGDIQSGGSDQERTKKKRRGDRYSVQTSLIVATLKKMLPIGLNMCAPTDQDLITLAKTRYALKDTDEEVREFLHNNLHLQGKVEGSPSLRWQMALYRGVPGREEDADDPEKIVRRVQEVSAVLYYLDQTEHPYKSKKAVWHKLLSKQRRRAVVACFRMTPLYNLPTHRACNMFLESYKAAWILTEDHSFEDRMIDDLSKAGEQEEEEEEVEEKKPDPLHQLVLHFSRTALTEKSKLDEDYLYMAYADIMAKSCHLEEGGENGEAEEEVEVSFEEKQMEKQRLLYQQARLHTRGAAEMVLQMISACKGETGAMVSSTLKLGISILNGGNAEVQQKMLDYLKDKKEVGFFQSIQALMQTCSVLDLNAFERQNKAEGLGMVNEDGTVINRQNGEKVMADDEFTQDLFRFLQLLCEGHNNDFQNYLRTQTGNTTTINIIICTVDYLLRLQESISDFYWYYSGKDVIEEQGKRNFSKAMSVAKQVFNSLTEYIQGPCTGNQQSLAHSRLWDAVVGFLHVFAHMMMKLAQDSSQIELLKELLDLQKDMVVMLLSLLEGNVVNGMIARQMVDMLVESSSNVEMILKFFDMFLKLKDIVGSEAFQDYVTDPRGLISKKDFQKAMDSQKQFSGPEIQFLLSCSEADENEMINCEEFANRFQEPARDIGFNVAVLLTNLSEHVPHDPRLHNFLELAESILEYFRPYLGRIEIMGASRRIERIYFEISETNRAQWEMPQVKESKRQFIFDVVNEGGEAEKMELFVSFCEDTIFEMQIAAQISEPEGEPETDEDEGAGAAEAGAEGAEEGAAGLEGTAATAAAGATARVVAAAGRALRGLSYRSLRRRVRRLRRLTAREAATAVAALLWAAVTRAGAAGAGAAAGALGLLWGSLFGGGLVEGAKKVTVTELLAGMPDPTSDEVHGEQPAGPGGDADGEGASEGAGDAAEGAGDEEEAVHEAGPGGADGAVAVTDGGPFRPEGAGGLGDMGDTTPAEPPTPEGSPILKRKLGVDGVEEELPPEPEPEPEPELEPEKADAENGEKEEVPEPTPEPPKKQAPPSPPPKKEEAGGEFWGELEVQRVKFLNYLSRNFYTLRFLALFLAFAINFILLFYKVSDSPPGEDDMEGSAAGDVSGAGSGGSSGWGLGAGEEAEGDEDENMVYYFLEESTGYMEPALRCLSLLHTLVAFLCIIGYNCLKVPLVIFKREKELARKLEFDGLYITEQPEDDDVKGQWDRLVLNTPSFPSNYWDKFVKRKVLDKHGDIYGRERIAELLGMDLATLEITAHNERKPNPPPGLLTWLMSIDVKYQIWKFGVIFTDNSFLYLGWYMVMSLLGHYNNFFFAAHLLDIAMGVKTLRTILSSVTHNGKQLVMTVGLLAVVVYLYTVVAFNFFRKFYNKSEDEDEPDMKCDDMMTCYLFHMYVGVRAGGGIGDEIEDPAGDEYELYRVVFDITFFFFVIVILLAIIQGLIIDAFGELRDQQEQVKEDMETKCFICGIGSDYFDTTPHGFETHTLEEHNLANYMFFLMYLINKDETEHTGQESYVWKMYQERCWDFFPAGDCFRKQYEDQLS

Compound: NC(=O)NCCC[C@H](N)C(=O)O.NC(=O)NCCC[C@H](N)C(=O)O.O=C(O)CC(O)C(=O)O (racemic) [L-citrulline-DL-malate 2:1, L-citrulline DL-malate 2:1]
- mean fluorescence (DAF-FM) (RAW264.7 mouse cells; RAW264.7 cells, 600 μg/ml samples): noticeably low mean fluorescence

Compound: O=C(Oc1c(-c2ccc(O)c(O)c2)oc2cc(O)cc(O)c2c1=O)c1cc(O)c(O)c(O)c1 [3GQ]
- Effect: Cytotoxicity, inhibition of proliferation, migration and tube formation of HUVEC (HUVEC [1]): ↑↑
- Effect: Induction of heme oxygenase 1 in RAW264, 7 cells [2]: ↓↓

Compound: O=C(Oc1cc(O)c2c(c1)O[C@H](c1ccc(O)c(O)c1)[C@@H](O)C2=O)c1cc(O)c(O)c(O)c1 [7GT]
- Effect: Cytotoxicity, inhibition of proliferation, migration and tube formation of HUVEC (HUVEC [1]): ↑↑
- Effect: Induction of heme oxygenase 1 in RAW264, 7 cells [2]: ↑↑↑

Compound: O=C(O[C@H]1Cc2c(O)cc(O)cc2O[C@@H]1c1ccc(O)c(O)c1)c1cc(O)c(O)c(O)c1 [CG]
- Effect: Cytotoxicity towards S-G cells (immortalized gum epithelial cells) ([3]; Control: Untreated cells): ↑↑↑
- Effect: Reduction of pancreatic lipase activity in vitro (pancreatic lipase): ↑↑↑

Compound: Oc1cc(O)c2c(c1)O[C@H](c1ccc(O)c(O)c1)[C@H](O)C2 [EC, epicatechin]
- Effect: Cytotoxicity towards S-G cells (immortalized gum epithelial cells) [3]: ↑

Compound: O=C(O[C@@H]1Cc2c(O)cc(O)cc2O[C@@H]1c1ccc(O)c(O)c1)c1cc(O)c(O)c(O)c1 [ECG, Epicatechin gallate]
- Effect: Inhibition of VEGF-induced proliferation migration and tube formation of human umbilical vein endothelial cells (HUVEC) [4]: ↑^c
- Effect: Inhibition of fatty acid synthase activity (fatty acid synthase): ↑↑↑
- Effect: Activiation of type 1 ryanodine receptor [5]: ↑↑↑
- Effect: Cytotoxicity towards S-G cells (immortalized gum epithelial cells) ([3]; Control: Untreated cells): ↑↑↑
- Effect: Reduction of pancreatic lipase activity in vitro (pancreatic lipase): ↑↑
- Effect: Inhibition of VEGF-induced proliferation of HUVEC (HUVEC [6]): ↑↑
- Effect: Inhibition of NA/H exchanger activity (NA/H exchanger): ↑↑
- Effect: Inhibition of NA+/K+ ATPase pump activity (NA+/K+ ATPase pump): ↑↑

Compound: O=C(O[C@@H]1Cc2c(O)cc(O)cc2O[C@@H]1c1cc(O)c(O)c(O)c1)c1cc(O)c(O)c(O)c1 [EGCG, epigallocatechin gallate]
- Effect: Inhibition of fatty acid synthase activity (fatty acid synthase): ↑↑↑
- Effect: Cytotoxicity, inhibition of proliferation, migration and tube formation of HUVEC (HUVEC [1]; galloyl-derivative compared to non-galloylated parent molecule): ↑↑^c
- Effect: Activiation of type 1 ryanodine receptor [5]: ↑↑↑
- Effect: Reduction of cell viability in HL-60 cells (HL-60 cells [7]): ↑↑
- Effect: Cytotoxicity towards S-G cells (immortalized gum epithelial cells) [3]: ↑↑↑
- Effect: Reduction of pancreatic lipase activity in vitro (pancreatic lipase): ↑↑
- Effect: Trolox-equivalent antioxidant activity [8]: ↑↑
- Effect: Inhibition of VEGF-induced proliferation of HUVEC (HUVEC [6]): ↑↑
- Effect: Inhibition of rat liver microsomal 5α-reductase ([9]; Control: Untreated enzyme): ↑
- Effect: Inhibition of NA/H exchanger activity (NA/H exchanger): ↑
- Effect: Suppression of fatty acid synthase expression n MCF-7 cells [10]: ↑↑↑
- Effect: Inhibition of NA+/K+ ATPase pump activity (NA+/K+ ATPase pump): ↑↑

Compound: Oc1cc(O)c2c(c1)O[C@H](c1cc(O)c(O)c(O)c1)[C@H](O)C2 [EGC]
- Effect: Inhibition of fatty acid synthase activity (fatty acid synthase): ↑
- Effect: Activiation of type 1 ryanodine receptor [5]: ↑
- Effect: Cytotoxicity towards S-G cells (immortalized gum epithelial cells) ([3]; Control: Untreated cells): ↑↑
- Effect: Inhibition of VEGF-induced proliferation of HUVEC (HUVEC [6]): ↑
- Effect: Inhibition of NA/H exchanger activity (NA/H exchanger): ↑↑↑
- Effect: Suppression of fatty acid synthase expression n MCF-7 cells [10]: •
- Effect: Inhibition of NA+/K+ ATPase pump activity (NA+/K+ ATPase pump): ↑

Compound: O=C(O)c1cc(O)c(O)c(O)c1 [GA, gallic acid]
- Effect: Inhibition of fatty acid synthase activity (fatty acid synthase): ↑
- Effect: Induction of apoptosis in HL-60 cells (HL-60 cells [11]): ↑↑

Compound: O=C(O[C@@H]1Cc2c(O)cc(O)cc2O[C@H]1c1cc(O)c(O)c(O)c1)c1cc(O)c(O)c(O)c1 [GCG]
- Effect: Reduction of pancreatic lipase activity in vitro (pancreatic lipase): ↑↑↑

Compound: N=C(N)NCCC[C@H](N)C(=O)O [L-arginine]
- mean fluorescence (DAF-FM) (RAW264.7 mouse cells): noticeably low mean fluorescence

Compound: O=C(OC[C@H]1O[C@@H](OC(=O)c2cc(O)c(O)c(O)c2)[C@H](OC(=O)c2cc(O)c(O)c(O)c2)[C@@H](OC(=O)c2cc(O)c(O)c(O)c2)[C@@H]1OC(=O)c1cc(O)c(O)c(O)c1)c1cc(O)c(O)c(O)c1 [PGG]
- Effect: Triggering of suicidal erythrocyte death (erythrocytes): ↑↑
- Effect: Growth inhibition of MCF-7 and MDA-MB231 cells [12]: ↑↑↑
- Effect: Reduction of cell viability in HL-60 cells (HL-60 cells [7]): ↑↑↑
- Effect: Inhibitory effects on LNCaP and DU145 cells (LNCaP and DU145 cells): ↑↑↑
- Effect: Inhibition of rat liver microsomal 5α-reductase [9]: ↑↑↑
- Effect: Cytotoxicity towards K562 cells (K562 cells): ↑

Compound: catechin
- Effect: Inhibition of fatty acid synthase activity (fatty acid synthase): •
- Effect: Suppression of fatty acid synthase expression n MCF-7 cells [10]: •

Compound: lipopolysaccharides from E. coli 0111: B4 [LPS]
- DAF-FM fluorescence (nitric oxide levels) (RAW264.7 mouse cells; RAW264.7 cells, 1 ng/ml incubated for 30 minutes): bright and consistent DAF-FM fluorescence
